Measurements from patent publication US10287255B2, “Compounds as histone deacetylase 6 inhibitors and pharmaceutical compositions comprising the same” (CHONG KUN DANG PHARMACEUTICAL CORP., priority 2014, dated 2019).
pIC50: −log10 of the molar value.

Legend:
human recombinant HDAC1 = target: T1, human recombinant HDAC1 (Homo sapiens, UniProt Q13547); assay: HDAC1 enzyme activity inhibition assay (in vitro, fluorimetric); type: biochemical; details: human recombinant HDAC1, fluorimetric kit, 30° C. 60 minutes
T1 construct: purchased Enzo Life Science BML-SE456
Summary of the method: (§1)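 IC50 values derive from fluorescence (Ex 360, Em 460) after developer treatment (30 min) of reactions of recombinant human HDAC1 or HDAC6 with 10 μM Fluor de Lys-SIRT1 substrate (60 min, 30 °C). Compounds were serially diluted 5-fold; 0.3 μg enzyme was used for HDAC1, with HDAC6 tested identically.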

human recombinant HDAC6 = target: T2, human recombinant HDAC6 (Homo sapiens, UniProt Q9UBN7); assay: HDAC6 enzyme activity inhibition assay (in vitro, fluorimetric); type: biochemical; details: for HDAC6 selectivity (fold): HDAC6 selectivity over HDAC1; for pIC50: human recombinant HDAC6, fluorimetric kit, same protocol as HDAC1
T2 construct: purchased Calbiochem 382180
T2 sequence (Q9UBN7 1-1215): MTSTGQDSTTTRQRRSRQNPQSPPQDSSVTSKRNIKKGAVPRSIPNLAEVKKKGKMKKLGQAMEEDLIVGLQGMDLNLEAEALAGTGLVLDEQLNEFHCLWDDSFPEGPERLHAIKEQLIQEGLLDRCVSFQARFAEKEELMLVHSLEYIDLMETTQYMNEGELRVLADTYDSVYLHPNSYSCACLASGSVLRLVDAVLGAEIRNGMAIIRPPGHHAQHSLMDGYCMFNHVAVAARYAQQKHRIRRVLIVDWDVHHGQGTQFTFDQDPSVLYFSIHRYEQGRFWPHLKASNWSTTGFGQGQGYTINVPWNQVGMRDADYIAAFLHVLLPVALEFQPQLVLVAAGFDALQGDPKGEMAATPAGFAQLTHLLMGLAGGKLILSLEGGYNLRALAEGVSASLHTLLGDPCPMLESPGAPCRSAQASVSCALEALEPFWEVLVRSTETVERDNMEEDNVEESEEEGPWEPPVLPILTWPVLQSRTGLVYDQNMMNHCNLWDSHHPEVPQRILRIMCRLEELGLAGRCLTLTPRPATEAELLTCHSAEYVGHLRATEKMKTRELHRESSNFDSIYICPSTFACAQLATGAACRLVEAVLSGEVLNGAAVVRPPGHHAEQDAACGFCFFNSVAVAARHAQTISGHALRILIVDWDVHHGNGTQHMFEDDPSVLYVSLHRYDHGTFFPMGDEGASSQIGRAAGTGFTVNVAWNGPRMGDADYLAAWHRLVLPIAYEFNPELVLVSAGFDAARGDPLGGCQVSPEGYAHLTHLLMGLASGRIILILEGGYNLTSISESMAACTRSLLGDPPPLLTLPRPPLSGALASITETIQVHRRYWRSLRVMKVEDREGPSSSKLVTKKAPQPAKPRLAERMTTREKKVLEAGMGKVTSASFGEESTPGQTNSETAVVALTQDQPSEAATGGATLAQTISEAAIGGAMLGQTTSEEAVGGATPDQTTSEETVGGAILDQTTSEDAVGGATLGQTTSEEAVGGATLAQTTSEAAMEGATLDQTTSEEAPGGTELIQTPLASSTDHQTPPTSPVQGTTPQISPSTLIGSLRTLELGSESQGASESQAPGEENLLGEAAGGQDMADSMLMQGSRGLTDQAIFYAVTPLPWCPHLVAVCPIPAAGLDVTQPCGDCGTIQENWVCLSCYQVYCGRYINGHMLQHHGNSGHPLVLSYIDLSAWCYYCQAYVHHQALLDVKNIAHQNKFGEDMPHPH
Summary of the method: as §1

T1 sequence (Q13547 whole entry): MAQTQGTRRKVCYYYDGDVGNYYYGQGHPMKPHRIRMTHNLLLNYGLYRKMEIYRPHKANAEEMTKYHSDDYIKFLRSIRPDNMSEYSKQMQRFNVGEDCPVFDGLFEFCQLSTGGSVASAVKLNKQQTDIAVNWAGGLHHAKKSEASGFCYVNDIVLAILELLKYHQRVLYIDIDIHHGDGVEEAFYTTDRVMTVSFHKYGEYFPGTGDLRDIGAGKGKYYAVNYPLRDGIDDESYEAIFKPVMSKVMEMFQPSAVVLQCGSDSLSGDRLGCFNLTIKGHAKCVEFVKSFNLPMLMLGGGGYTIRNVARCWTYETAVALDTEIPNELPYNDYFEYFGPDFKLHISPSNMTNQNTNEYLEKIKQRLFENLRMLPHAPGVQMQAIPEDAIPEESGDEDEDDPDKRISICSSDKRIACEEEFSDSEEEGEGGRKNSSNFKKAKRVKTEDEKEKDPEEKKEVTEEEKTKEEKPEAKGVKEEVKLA

| pIC50 (human recombinant HDAC1) | HDAC6 selectivity (fold) (human recombinant HDAC6) | pIC50 (human recombinant HDAC6) | SMILES |
| --- | --- | --- | --- |
| < 5.00 | 36 fold | 5.84 | C[C@@H]1CN(Cc2ccc3cc(C(=O)NO)[nH]c3c2)C[C@H](C)N1Cc1ccccc1 [Compound 573, 6-(((3R,5S)-4-benzyl-3,5-dimethylpiperazin-1-yl)methyl)-N-hydroxy-1H-indole-2-carboxamide] |
| < 5.00 | >11 fold | 6.06 | C[C@@H]1CN(Cc2ccc(C(=O)NO)c(O)c2)C[C@H](C)N1Cc1ccccc1 [Compound 652, 4-(((3R,5S)-4-benzyl-3,5-dimethylpiperazin-1-yl)methyl)-N,2-dihydroxybenzamide] |
| < 5.00 | >1000 fold | 8.00 | C[C@@H]1CN(Cc2ccc(C(=O)NO)cc2F)C[C@H](C)N1Cc1cccc(CN2CCOCC2)c1 [Compound 696, 4-(((3R,5S)-3,5-dimethyl-4-(3-(morpholinomethyl)benzyl)piperazin-1-yl)methyl)-3-fluoro-N-hydroxybenzamide] |
| 4.76 | 1720 fold | 8.00 | C[C@@H]1CN(Cc2ccc(C(=O)NO)cc2F)C[C@H](C)N1Cc1ccccc1 [Compound 813, 4-(((3R,5S)-4-benzyl-3,5-dimethylpiperazin-1-yl)methyl)-3-fluoro-N-hydroxybenzamide] |
| 4.69 | 20 fold | 6.00 | C[C@@H]1CN(C(=O)c2ccc(C(=O)NO)cc2)C[C@H](C)N1Cc1ccccc1 [Compound 814, 4-((3R,5S)-4-benzyl-3,5-dimethylpiperazine-1-carbonyl)-N-hydroxybenzamide] |
| < 5.00 | >11 fold | 6.06 | C[C@@H]1CN(S(=O)(=O)c2ccc(C(=O)NO)cc2)C[C@H](C)N1Cc1ccccc1 [Compound 818, 4-(((3R,5S)-4-benzyl-3,5-dimethylpiperazin-1-yl)sulfonyl)-N-hydroxybenzamide] |
| < 5.00 | >35 fold | 6.55 | C[C@@H]1CN(CC2CCC(C(=O)NO)CC2)C[C@H](C)N1Cc1ccccc1 (stereo partly drawn) [Compound 822, 4-(((3R,5S)-4-benzyl-3,5-dimethylpiperazin-1-yl)methyl)-N-hydroxycyclohexane-1-carboxamide] |

More lines, now with the values behind:

| SMILES | pIC50 (human recombinant HDAC1) | HDAC6 selectivity (fold) (human recombinant HDAC6) | pIC50 (human recombinant HDAC6) |
| --- | --- | --- | --- |
| C[C@@H]1CN(Cc2ccc3[nH]c(C(=O)NO)cc3c2)C[C@H](C)N1Cc1ccccc1 [Compound 569, 5-(((3R,5S)-4-benzyl-3,5-dimethylpiperazin-1-yl)methyl)-N-hydroxy-1H-indole-2-carboxamide] | < 5.00 | 82 fold | 6.08 |
| C[C@@H]1CN(Cc2cc3cc(C(=O)NO)ccc3o2)C[C@H](C)N1Cc1ccccc1 [Compound 574, 2-(((3R,5S)-4-benzyl-3,5-dimethylpiperazin-1-yl)methyl)-N-hydroxybenzofuran-5-carboxamide] | 5.41 | 4 fold | 6.09 |
| C[C@@H]1CN(Cc2ccc(C(=O)NO)nc2)C[C@H](C)N1Cc1cccc(CN2CCOCC2)c1 [Compound 609, 5-(((3R,5S)-3,5-dimethyl-4-(3-(morpholinomethyl)benzyl)piperazin-1-yl)methyl)-N-hydroxypicolinamide] | < 5.00 | >13.3 fold | 6.12 |
| C[C@@H]1CN(Cc2ccc(C(=O)NO)c(O)c2)C[C@H](C)N1Cc1cccc(CN2CCOCC2)c1 [Compound 653, 4-(((3R,5S)-3,5-dimethyl-4-(3-(morpholinomethyl)benzyl)piperazin-1-yl)methyl)-N,2-dihydroxybenzamide] | < 5.00 | >23 fold | 6.38 |
| C[C@@H]1CN(Cc2ccc(C(=O)NO)nc2)C[C@H](C)N1Cc1ccccc1 [Compound 812, 5-(((3R,5S)-4-benzyl-3,5-dimethylpiperazin-1-yl)methyl)-N-hydroxypicolinamide] | < 5.00 | >6 fold | 5.81 |
| C[C@@H]1CN(S(=O)(=O)c2ccc(CC(=O)NO)cc2)C[C@H](C)N1Cc1ccccc1 [Compound 820, 2-(4-(((3R,5S)-4-benzyl-3,5-dimethylpiperazin-1-yl)sulfonyl)phenyl)-N-hydroxyacetamide] | 5.65 | 9 fold | 6.60 |
| C[C@@H]1CN(C(=O)c2ccc(CC(=O)NO)cc2)C[C@H](C)N1Cc1ccccc1 [Compound 823, 2-(4-((3R,5S)-4-benzyl-3,5-dimethylpiperazine-1-carbonyl)phenyl)-N-hydroxyacetamide] | 5.57 | 66 fold | 7.40 |
| C[C@@H]1CN(C(=O)c2ccc(CCC(=O)NO)cc2)C[C@H](C)N1Cc1ccccc1 [Compound 824, 3-(4-((3R,5S)-4-benzyl-3,5-dimethylpiperazine-1-carbonyl)phenyl)-N-hydroxypropanamide] | 5.39 | 22 fold | 6.74 |
